Each structure is given as a SMILES string. pIC50: −log10 of the molar value.

The target in this assay is T1, β-cell KATP channel (human SUR1 and human Kir6.2) (Homo sapiens, UniProt Q09428).
T1 construct: gene ABCC8; SUR1 and Kir6.2 co-expressed in COS-1 cells; with ATP-sensitive inward rectifier potassium channel 11
The experiment in a line: whole-cell patch clamp, inhibition of diazoxide-induced K+ current. It counts as cell-based.

T1 sequence (Q09428 whole entry): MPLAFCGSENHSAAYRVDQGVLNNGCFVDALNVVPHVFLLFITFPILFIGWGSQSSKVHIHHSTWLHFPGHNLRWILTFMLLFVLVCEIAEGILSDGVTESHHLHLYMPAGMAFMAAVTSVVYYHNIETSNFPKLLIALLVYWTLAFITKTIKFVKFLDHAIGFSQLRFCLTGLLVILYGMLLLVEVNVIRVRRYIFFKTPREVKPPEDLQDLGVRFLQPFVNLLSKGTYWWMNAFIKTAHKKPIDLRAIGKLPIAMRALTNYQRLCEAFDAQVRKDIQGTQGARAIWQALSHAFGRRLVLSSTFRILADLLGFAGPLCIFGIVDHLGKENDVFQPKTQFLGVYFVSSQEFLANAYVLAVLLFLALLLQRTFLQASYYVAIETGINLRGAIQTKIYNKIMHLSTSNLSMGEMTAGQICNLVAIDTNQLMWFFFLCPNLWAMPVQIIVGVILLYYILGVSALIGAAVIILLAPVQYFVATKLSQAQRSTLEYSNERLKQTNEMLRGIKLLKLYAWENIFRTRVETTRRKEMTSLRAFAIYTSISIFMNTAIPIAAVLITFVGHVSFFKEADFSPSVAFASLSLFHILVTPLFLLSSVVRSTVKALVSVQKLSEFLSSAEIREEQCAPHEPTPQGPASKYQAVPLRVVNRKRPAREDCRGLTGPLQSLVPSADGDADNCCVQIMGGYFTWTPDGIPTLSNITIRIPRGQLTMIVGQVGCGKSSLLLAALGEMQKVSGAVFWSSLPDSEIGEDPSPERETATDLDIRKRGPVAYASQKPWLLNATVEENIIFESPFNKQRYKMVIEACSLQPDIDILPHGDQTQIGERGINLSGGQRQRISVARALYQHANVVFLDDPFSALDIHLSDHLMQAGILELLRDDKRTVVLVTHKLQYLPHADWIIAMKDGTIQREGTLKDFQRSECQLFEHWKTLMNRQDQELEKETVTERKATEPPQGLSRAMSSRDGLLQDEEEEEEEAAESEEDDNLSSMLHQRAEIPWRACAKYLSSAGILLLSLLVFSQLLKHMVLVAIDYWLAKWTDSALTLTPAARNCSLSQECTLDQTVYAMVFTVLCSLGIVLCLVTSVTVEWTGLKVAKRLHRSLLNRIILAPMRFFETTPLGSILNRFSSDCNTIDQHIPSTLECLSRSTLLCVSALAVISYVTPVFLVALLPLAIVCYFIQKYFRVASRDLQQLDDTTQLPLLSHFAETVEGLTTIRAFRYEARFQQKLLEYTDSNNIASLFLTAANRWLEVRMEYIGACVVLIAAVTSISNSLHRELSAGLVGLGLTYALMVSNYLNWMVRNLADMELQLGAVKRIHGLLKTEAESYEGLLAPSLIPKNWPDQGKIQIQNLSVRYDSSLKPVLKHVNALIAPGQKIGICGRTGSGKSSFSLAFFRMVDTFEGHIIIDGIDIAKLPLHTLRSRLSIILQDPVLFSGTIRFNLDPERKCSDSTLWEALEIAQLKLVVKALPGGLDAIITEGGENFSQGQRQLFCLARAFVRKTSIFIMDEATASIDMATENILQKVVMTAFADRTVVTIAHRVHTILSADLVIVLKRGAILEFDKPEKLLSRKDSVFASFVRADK
T1 sequence (Q14654 whole entry partner): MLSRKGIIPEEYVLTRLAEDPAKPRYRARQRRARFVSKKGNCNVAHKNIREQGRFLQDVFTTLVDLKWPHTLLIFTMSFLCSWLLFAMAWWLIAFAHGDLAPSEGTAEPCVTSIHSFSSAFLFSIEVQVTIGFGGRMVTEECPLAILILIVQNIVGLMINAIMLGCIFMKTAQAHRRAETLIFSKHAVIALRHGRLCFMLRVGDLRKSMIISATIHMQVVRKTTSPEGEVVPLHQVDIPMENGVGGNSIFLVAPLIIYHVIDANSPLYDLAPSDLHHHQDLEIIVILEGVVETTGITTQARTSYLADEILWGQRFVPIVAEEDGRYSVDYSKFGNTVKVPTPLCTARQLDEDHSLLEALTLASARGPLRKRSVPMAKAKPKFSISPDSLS

In turn, `Cc1ccc(S(=O)(=O)NC(=O)NN2CC3CCCC3C2)cc1` (stereo not shown) [gliclazide] showed a pIC50 of 6.07.

Source of the values: PMC5072725, “A Novel Diphenylthiosemicarbazide Is a Potential Insulin Secretagogue for Anti-Diabetic Agent” (PLoS ONE, 2016).
